“And” between values parts separate entries of the source, which are not always exact repeats. Equal entries are not always repeated. Where two headings read alike, the source gives them in different places.
What was measured:
[1] = test system: head twitch response (HTR); format: in vivo, mice
Protocol: Male C57BL/6 mice (~7-9 weeks old) were used in these studies. Mice were housed 2 per cage under standard temperature- and humidity-controlled laboratory conditions with a 12-hour light/dark cycle. Mice had free access to food and water.
Both compounds were dissolved in saline vehicle at a dose volume of 10 mL/kg. Doses were corrected for salt form so that the dose administered represented free base.
Mice were randomly assigned to 1 of 6 treatment groups consisting of 2 subcutaneous injections (see Table 1), which were administered according to the schedule in FIG. 1. […] Behavior was videotaped by a camera (GoPro Hero 9) mounted above the testing chambers. Recorded video was uploaded for analysis of head twitch behavior. Number of head twitch responses (HTRs) was recorded for each animal for each 2-min bin. For each treatment group, the mean number of HTRs in each 2- or 10-min bin, and across the whole 30-min recording period, were analyzed.

in vivo = conditions: male, C57BL/6, mouse
Protocol: Male C57BL/6 mice, aged 8-12 weeks, were used in these studies. Mice were housed 4 per cage under standard temperature- and humidity-controlled laboratory conditions with a 12-hour light/dark cycle. Mice had free access to food and water but were fasted from 4 h prior to and until 2 h after dosing. Animals were randomly assigned to treatment groups.
Doses were corrected for salt form so that the dose administered represented free base.
Immediately after blood collection, plasma was harvested by centrifugation at 4,000 rpm for 10 min at 4° C. and samples were stored at −70±10° C. until bioanalysis. Following blood collection, animals were immediately sacrificed, the abdominal vena-cava was cut open, the whole body was perfused from the heart using 10 mL of normal saline, and brain samples were collected from all animals. After isolation, brain samples were rinsed three times in ice-cold normal saline (for 5-10 seconds/rinse using ~5-10 mL normal saline in a disposable petri dish for each rinse) and dried on blotting paper. Brain samples were homogenized using ice-cold phosphate-buffered saline (pH 7.4). Total homogenate volume was three times the tissue weight. All homogenates were stored at −70±10° C. until bioanalysis. For bioanalysis, 20 μL aliquots of plasma/brain study samples or spiked plasma/brain calibration standards were added to individual pre-labeled micro-centrifuge tubes followed by 200 μL of an internal standard solution (cetirizine, 50 ng/mL in acetonitrile) except for blanks, where 200 μL of acetonitrile was added. Samples were vortexed for 5 minutes and then centrifuged for 10 minutes at 4,000 rpm at 4° C. Following centrifugation, 200 μL of each clear supernatant was transferred to a 96-well plate and analyzed with a fit-for-purpose LC-MS/MS method, with authentic samples of each analyte used for calibration and identification.

[2] = Plasma protein binding, rapid equilibrium dialysis, mouse plasma; format: in vitro ADME
Protocol: (§1) A 1 mM stock solution of trazadone was prepared in DMSO and diluted 200-fold in mouse or human plasma to yield a final concentration of 5 μM. The final DMSO concentration was 0.5%. Rapid equilibrium dialysis (RED) was performed with a RED device containing a dialysis membrane with a molecular weight cut-off of 8,000 Daltons. Each dialysis insert contains two chambers. The red chamber is for plasma while the white chamber is for buffer.
(§2) For each dialysis insert, aliquots (200 μL) of positive control or test compound at 5 μM (n=2) were separately added to the plasma chamber and 350 μL of phosphate buffered saline (pH 7.4) was added to the buffer chamber. After sealing the RED device with an adhesive film, dialysis was performed in an incubator at 37° C. with shaking at 300 RPM for 4 hours. To assess recovery and stability, 50 μL aliquots of positive control and test compound were added to 96-deep well plates and quenched with 400 μL acetonitrile (for 0 min), while comparator aliquots were incubated at 37° C. for 4 hours along with the RED device.
(§3) Following dialysis, an aliquot of 50 μL was removed from each well (both plasma and buffer side) and diluted with an equal volume of the opposite matrix (dialyzed with the other matrix) to nullify the matrix effect. Similarly, 50 μL of buffer was added to recovery and stability samples. An aliquot of 100 μL was submitted for LC-MS/MS analysis. […]

[3] = Plasma protein binding, rapid equilibrium dialysis, human plasma; format: in vitro ADME
Protocol: as §1, §2, §3

[4] = Human plasma pharmacokinetic parameters of trazodone collected from the literature; format: in vivo; conditions: mean of literature values
[5] = cited from earlier work

For O=c1n(CCCN2CCN(c3cccc(Cl)c3)CC2)nc2ccccn12 [trazodone], the “HTR reversal quantified in 10-minute bins” value ([1]; 0-10, 10-20, 20-30 min post trazodone, even at the lowest dose) was “rapid and robust HTR reversal effect”, the “onset of reversal of DOPR HTR” value ([1]; all trazodone doses tested, SC, 45 min after DOPR 3.2 mg/kg SC) was at most 2 min and the “persistence of HTR reversal effect” value ([1]; all trazodone doses tested, limited by recording period) was at least 30 min. The “reversal of DOPR-induced HTR in the 20-30-minute time bin” value ([1]; lowest dose of trazodone (1 mg/kg SC)) was “full reversal”, the “minimum efficacious concentration (MEC) in plasma for reversal” value ([1]; mice, total plasma concentration 25 min after 1 mg/kg SC trazodone) was at most 369 ng/mL and the “reversal of HTR induced by DOPR” value ([1]; trazodone 1, 1.8, 3.2 or 10 mg/kg SC 45 min after DOPR 3.2 mg/kg SC, 30-min recording, all doses incl. lowest) was “fully reversed”. The concentration at 5 min (in vivo; 1 mg/kg) was 800 ng/mL and 700 ng/g, the concentration at 15 min (in vivo; 1 mg/kg) was 504 ng/mL and 584 ng/g and the concentration at 25 min (in vivo; 1 mg/kg) was 369 ng/mL and 255 ng/g. The concentration at 5 min (in vivo; 3.2 mg/kg) was 1480 ng/mL and 1750 ng/g, the concentration at 15 min (in vivo; 3.2 mg/kg) was 1350 ng/mL and 1600 ng/g and the concentration at 25 min (in vivo; 3.2 mg/kg) was 1020 ng/mL and 674 ng/g. For the same compound, the concentration at 5 min (in vivo; 10 mg/kg) was 3490 ng/mL and 7930 ng/g, the concentration at 15 min (in vivo; 10 mg/kg) was 2870 ng/mL and 5100 ng/g and the concentration at 25 min (in vivo; 10 mg/kg) was 1910 ng/mL and 3580 ng/g. The “bound fraction in plasma” value ([2]; 5 μM, 4 hours, 37° C.) was 94.4%, the fraction unbound at 4 h, 5 μM ([2]; pH 7.4, 37° C.) was 0.056 and the “bound fraction in plasma” value ([3]; 5 μM, 4 hours, 37° C.) was 90.2%. The fraction unbound at 4 h, 5 μM ([3]; pH 7.4, 37° C.) was 0.098, the “Cmax (ng/mL per mg dosed)” value ([4]; PO) was 17.2 ng/mL per mg dosed and the half-life ([4]; human, plasma, IV) was 6.3 h. The Tmax ([4]; human, plasma, PO) was 1.5 h, the half-life ([4]; human, plasma, PO) was 9.1 h and the T1/2 ([5]; 25 mg IV, Greenblatt, 1987) was 5.3 h. The “Cmax (ng/mL per mg dosed)” value ([5]; 50 mg PC, Greenblatt, 1987) was 18.8 ng/mL per mg dosed, the T1/2 ([5]; 50 mg PC, Greenblatt, 1987) was 5.2 h and the Tmax ([5]; 50 mg PC, Greenblatt, 1987) was 1.02 h. For the same compound, the “Cmax (ng/mL per mg dosed)” value ([5]; 50 mg PO, Gammans, 1984) was 17.16 ng/mL per mg dosed, the T1/2 ([5]; 50 mg PO, Gammans, 1984) was 13.3 h and the Tmax ([5]; 50 mg PO, Gammans, 1984) was 0.9 h. The T1/2 ([5]; 90 mg IV, Nilsen, 1992) was 7.3 h, the “Cmax (ng/mL per mg dosed)” value ([5]; 100 mg PO, Bayer, 1983) was 16 ng/mL per mg dosed and the T1/2 ([5]; 100 mg PO, Bayer, 1983) was 6.0 h. The Tmax ([5]; 100 mg PO, Bayer, 1983) was 2 h, the “Cmax (ng/mL per mg dosed)” value ([5]; 100 mg PO, Kale, 2015) was 15.47 ng/mL per mg dosed and the T1/2 ([5]; 100 mg PO, Kale, 2015) was 13.1 h. For the same compound, the Tmax ([5]; 100 mg PO, Kale, 2015) was 2.25 h, the “Cmax (ng/mL per mg dosed)” value ([5]; 100 mg PO, Nilsen, 1992) was 18.8 ng/mL per mg dosed and the T1/2 ([5]; 100 mg PO, Nilsen, 1992) was 7.8 h. For the same compound, the Tmax ([5]; 100 mg PO, Nilsen, 1992) was 1.34 h and the half-life ([5]; human) was 6 to 12 h.

— patent US20260272868A1 (priority 2022, published 2026)
